Among the data in patent publication US11384075B2, “Quinolinone compounds” (Janssen Pharmaceutica NV, priority 2017, dated 2022) are IC50 and GI50 values, retold here.

The structures appear in SMILES notation.

In experiment [1] the target is T1, human FGFR3 V555L enzyme (cytoplasmic domain carrying V555L mutation) (Homo sapiens, UniProt P22607, V555L).
T1 construct: human FGFR3 V555L enzyme (cytoplasmic domain carrying V555L mutation, from Carna Biosciences); purchased Carna Biosciences
Nature of the experiment: FGFR3 V555L mobility shift assay (enzymatic assay). The format is biochemical. The settings on record: 40 μM ATP, 50 minutes at 30° C., Caliper EZ reader II. As for the experimental part: FGFR3 V555L Mobility Shift Assay (Enzymatic Assay)
In a final reaction volume of 25 μL, 0.04 ng/μL human FGFR3 V555L enzyme (cytoplasmic domain carrying V555L mutation, from Carna Biosciences) was incubated with 40 μM ATP, 1 μM FL-peptide 30 substrate and 250 nL of testing compound (1% DMSO final) in assay buffer (100 mM HEPES pH 7.4, 10 mM MgCl2, 0.003% Brij35, 1 mM DTT). After incubation for 50 minutes at 30° C. the reaction was stopped with 10 μL of 0.5M EDTA pH 8.0, and then 25 μL of reaction mixture was transferred to reading plate and measured on Caliper EZ reader II. The substrate-product conversion rate was used as raw data for normalization and concentration-response curve (10 dose points with 4× serial dilution, starting with 10 μM) was plotted using Prism to calculate IC50 (M), pIC50 (−log IC50) and HillSlope value.

The target in experiment [2] is T2, NIH/3T3 cells overexpressing FGFR3 WT-TACC3 fusion protein (Homo sapiens, UniProt P22607).
T2 construct: NIH/3T3 FGFR3 WT-TACC3 CTG (IC50); other: 72-hr incubation, CellTiter Glo, starting with 10 μM; fused on or other part: Q9Y6A5 (Transforming acidic coiled-coil-containing protein 3)
T2 sequence (P22607 whole entry, change not shown, the tested form may be a part): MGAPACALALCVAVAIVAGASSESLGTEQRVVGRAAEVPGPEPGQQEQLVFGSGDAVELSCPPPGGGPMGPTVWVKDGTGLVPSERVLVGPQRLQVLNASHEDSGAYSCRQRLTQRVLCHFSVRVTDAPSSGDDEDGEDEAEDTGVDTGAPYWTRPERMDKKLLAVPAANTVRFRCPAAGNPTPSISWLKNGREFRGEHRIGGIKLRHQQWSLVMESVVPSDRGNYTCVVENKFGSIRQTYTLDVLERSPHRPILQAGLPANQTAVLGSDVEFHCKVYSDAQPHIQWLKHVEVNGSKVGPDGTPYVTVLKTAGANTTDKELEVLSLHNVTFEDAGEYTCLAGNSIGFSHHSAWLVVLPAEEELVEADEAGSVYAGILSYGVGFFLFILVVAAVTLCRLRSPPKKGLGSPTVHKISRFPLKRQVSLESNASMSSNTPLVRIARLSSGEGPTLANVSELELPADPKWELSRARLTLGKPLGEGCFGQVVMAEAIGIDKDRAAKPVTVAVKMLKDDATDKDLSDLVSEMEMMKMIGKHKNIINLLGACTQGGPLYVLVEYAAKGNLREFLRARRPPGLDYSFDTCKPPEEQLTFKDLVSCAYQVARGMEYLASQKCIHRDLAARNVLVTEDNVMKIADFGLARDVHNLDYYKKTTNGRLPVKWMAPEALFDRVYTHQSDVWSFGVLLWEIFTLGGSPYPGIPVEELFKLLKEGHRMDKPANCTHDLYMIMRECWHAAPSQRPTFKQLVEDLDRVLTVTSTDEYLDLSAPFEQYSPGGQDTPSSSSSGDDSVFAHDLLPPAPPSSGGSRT
Nature of the experiment: NIH/3T3 FGFR3 WT-TACC3 cell proliferation assay. The format is cell-based. The settings on record: 72-hr incubation, CellTiter Glo, starting with 10 μM; read-out: NIH/3T3 FGFR3 WT-TACC3 CTG (IC50). In a few lines: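 Cells seeded overnight, then exposed 72 h at 37 °C to compound in 9-point 4-fold dilutions from 10 μM (0.1% DMSO final). Viability read by CellTiter-Glo luminescence, normalized to survival %; IC50, pIC50 and Hill slope from concentration-response fit.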
In general terms: ATP-based viability assays read luminescence as a measure of living cells.

In experiment [3] the target is T3, NIH/3T3 cells overexpressing FGFR3 V555M-TACC3 fusion protein (Homo sapiens, UniProt P22607, V555M, cells depend on it).
T3 construct: NIH/3T3 FGFR3 V555M-TACC3 CTG (IC50); other: 72-hr incubation, CellTiter Glo, starting with 10 μM; fused on or other part: Q9Y6A5 (Transforming acidic coiled-coil-containing protein 3)
T3 sequence (P22607 whole entry V555M, the tested form may be a part): as the sequence (P22607 whole entry, change not shown, the tested form may be a part) above, with V555M counted along it
The experiment can be described thus: NIH/3T3 FGFR3 V555M-TACC3 cell proliferation assay. The format is cell-based. To be noted: 72-hr incubation, CellTiter Glo, starting with 10 μM; read-out: NIH/3T3 FGFR3 V555M-TACC3 CTG (IC50). The gist of the method: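 NIH/3T3 cells overexpressing FGFR3 V555M-TACC3 fusion, 30,000/well in DMEM/10% FBS, treated for 72 h at 37 °C with 9 doses (4× dilutions from 10 μM top, 0.1% DMSO). CellTiter-Glo luminescence normalised to % survival; IC50, pIC50 and Hill slope from concentration-response fits.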

In experiment [4] the test system is NIH/3T3 cells transfected with the same control vector. Nature of the experiment: NIH/3T3 mock cell proliferation assay (counter assay, general toxicity). The format is cell-based. The settings on record: Mus musculus, NIH3T3, 72 h, 72-hr incubation, CellTiter Glo, starting with 30 μM; counter assay for general toxicity; read-out: NIH/3T3 MOCK CTG (IC50). In a few lines: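 Control-vector NIH/3T3 cells, 30,000/well in DMEM with 10% FBS, exposed 72 h at 37 °C to compound (9 points, 3-fold from 30 μM, 0.3% DMSO). CellTiter-Glo luminescence normalized to survival %; IC50, pIC50 and Hill slope from concentration-response fit.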

Experiment [5] deals with T4, human FGFR3 V555M enzyme (cytoplasmic domain carrying V555M mutation) (Homo sapiens, UniProt P22607, V555M).
T4 construct: human FGFR3 V555M enzyme (cytoplasmic domain carrying V555M mutation, from Carna Biosciences); purchased Carna Biosciences
T4 sequence (P22607 397-806 V555M limits assumed): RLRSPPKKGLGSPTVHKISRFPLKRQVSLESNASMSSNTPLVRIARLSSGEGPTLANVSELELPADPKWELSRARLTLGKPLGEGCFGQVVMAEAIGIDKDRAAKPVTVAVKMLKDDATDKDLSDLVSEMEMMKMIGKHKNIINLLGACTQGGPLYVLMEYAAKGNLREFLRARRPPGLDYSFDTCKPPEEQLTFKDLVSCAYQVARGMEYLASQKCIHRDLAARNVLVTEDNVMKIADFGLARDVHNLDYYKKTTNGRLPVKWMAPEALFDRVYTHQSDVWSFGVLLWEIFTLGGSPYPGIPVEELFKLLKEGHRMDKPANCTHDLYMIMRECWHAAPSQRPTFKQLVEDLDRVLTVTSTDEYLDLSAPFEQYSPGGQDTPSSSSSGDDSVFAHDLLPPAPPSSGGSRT
The experiment can be described thus: FGFR3 V555M mobility shift assay (enzymatic assay). The format is biochemical. The settings on record: 30 μM ATP, 45 minutes at 30° C., Caliper EZ reader II. In a few lines:
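Cytoplasmic-domain FGFR3 V555M (0.04 ng/μL) with 30 μM ATP and 1 μM FL-peptide 30 in HEPES pH 7.4/MgCl2/Brij35/DTT, 1% DMSO, 45 min at 30 °C, EDTA-stopped. Mobility-shift read of substrate-product conversion; 10-point 4× dilution from 10 μM fitted for IC50/pIC50.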

Experiment [6] has as its target T5, human FGFR3 wild type enzyme (cytoplasmic domain) (Homo sapiens, UniProt P22607).
T5 construct: human FGFR3 wild type enzyme (cytoplasmic domain, from Carna Biosciences); purchased Carna Biosciences
The experiment can be described thus: FGFR3 wild type mobility shift assay (enzymatic assay). The format is biochemical. The settings on record: 75 μM ATP, 50 minutes at 30° C., Caliper EZ reader II. In a few lines:
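Cytoplasmic domain of human wild-type FGFR3 (0.04 ng/μL) with 75 μM ATP and 1 μM FL-peptide 30, pH 7.4 HEPES/MgCl2 buffer, 1% DMSO, 50 min at 30 °C, EDTA-stopped. Substrate-product conversion read by mobility shift. IC50, pIC50 and Hill slope from 10-point 4-fold dilutions starting at 10 μM.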

T1 sequence (P22607 397-806 V555L limits assumed): as the sequence (P22607 397-806 V555M limits assumed) above, with M159L counted along it
T5 sequence (P22607 397-806 limits assumed): as the sequence (P22607 397-806 V555M limits assumed) above, with M159V counted along it

On to `CCC(Nc1c(-c2nc3ccc(N4CCOCC4)cc3[nH]2)c(=O)[nH]c2ccccc12)c1ncccn1` (single isomer, unassigned) [Compound 30a, (S*)-3-(6-morpholino-1H-benzo[d]imidazol-2-yl)-4-((1-(pyrimidin-2-yl)propyl)amino)quinolin-2(1H)-one], for which the IC50 in experiment [1] was 0.617 nM; in experiment [4], 2910 nM; in experiment [5], 0.177 nM; in experiment [6], 0.281 nM. The GI50 stood at 7.19 nM in experiment [2] and 5.34 nM in experiment [3].
Take `CC(C)C(Nc1c(-c2nc3ccc(N4CCOCC4)cc3[nH]2)c(=O)[nH]c2ccccc12)c1ncccn1` (single isomer, unassigned) [Compound 32a, (S*)-4-((2-methyl-1-(pyrimidin-2-yl)propyl)amino)-3-(6-morpholino-1H-benzo[d]imidazol-2-yl)quinolin-2(1H)-one]: the IC50 amounted to 0.364 nM in experiment [1], 2610 nM in experiment [4], 0.171 nM in experiment [5] and 0.368 nM in experiment [6]. Moreover, the results for the GI50 in experiment [2] and in experiment [3] were 16.5 nM and 5.75 nM, respectively.
As to `O=c1[nH]c2ccccc2c(NC(c2ncccn2)C2CC2)c1-c1nc2ccc(N3CCOCC3)cc2[nH]1` (single isomer, unassigned) [Compound 33a, (S*)-4-((cyclopropyl(pyrimidin-2-yl)methyl)amino)-3-(6-morpholino-1H-benzo[d]imidazol-2-yl)quinolin-2(1H)-one], the IC50 in experiment [1] was 0.63 nM; in experiment [4], 1080 nM; in experiment [5], 0.237 nM; in experiment [6], 0.595 nM. Further, the values for the GI50 in experiment [2] and in experiment [3] were 9.24 nM and 6.41 nM, respectively.
As to `C[C@H](Nc1c(-c2nc3ccc(N4CCN(C)CC4)cc3[nH]2)c(=O)[nH]c2ccccc12)c1ccccn1` [Compound 65, (S)-3-(6-(4-methylpiperazin-1-yl)-1H-benzo[d]imidazol-2-yl)-4-((1-(pyridin-2-yl)-ethyl)amino)quinolin-2(1H)-one], the IC50 came out at 0.246 nM in experiment [1], 165 nM in experiment [4], 0.193 nM in experiment [5] and 0.377 nM in experiment [6]. In addition, the GI50 in experiment [2] turned out to be 5.93 nM; in experiment [3], 8.19 nM.
